For assay [1], the system named is male C57BL/6J mice. Briefly: Acute single dose 120-min time-course experiment, in vivo glucose reduction. Further details: unit not given here. Conditions: 30 nM/kg, i.p, n = 8, Mean ± SEM. As to the method: Acute single dose 120-min time-course experiments were carried out in male C57BL/6J or db/db mice, age 8-12 weeks, bred in-house. The animals were housed in groups of 6 animals per cage, for a week, in order to habituate them to vivarium conditions (25+4° C., 60-65% relative humidity, 12:12 h light: dark cycle, with lights on at 7.30 am). All the animal experiments were carried out according to the internationally valid guidelines following approval by the ‘Zydus Research Center animal ethical committee’.
[…] On the day of experiment, food was withdrawn from all the cages, water was given ad-libitum and were kept for overnight fasting. Vehicle (normal saline)/test/standard compounds were administered intraperitoneally (i.p.) or orally, on a body weight basis. Soon after the 0 min. blood collection from each animal, the subsequent blood collections were done at 30, 60 and 120 or upto 240 min., via retro-orbital route, under light ether anesthesia (Chen, D., et al., Diabetes Obesity Metabolism, 2005, 7, 307. Kim, J. G. et al., Diabetes, 2003, 52, 751).
The blood samples were centrifuged and the separated serum was immediately subjected for the glucose estimation. The serum for insulin estimation was stored at −70° C. until used for the insulin estimation. The glucose estimation was carried out with DPEC-GOD/POD method (Ranbaxy Fine Chemicals Limited, Diagnostic division, India), using Spectramax-190, in 96-microwell plate reader (Molecular devices Corporation, Sunnyvale, Calif.). […] The AUC and BCAUC obtained from graphs were analyzed for one way ANOVA, followed by Dunnett's post test, using Graph Pad prism software. Furthermore, the insulin estimation was carried out using rat/mouse insulin ELISA kit (Linco research, Missouri USA).

Assay [2] relates to RIN5F (Rat Insulinoma) cells. Put plainly: In vitro glucose-dependent insulin secretion (RIN5F cell assay). Conditions: 16.7-mM glucose load, n = 3, mean ± S.D. Type of assay: cell-based. The method, then:
RIN5F (Rat Insulinoma) cells were cultured in RPMI 1640 medium supplemented with sodium pyruvate (1 mM) HEPES and Glucose (4.5 g/L) in a humidified incubator (5% CO2), at 37° C. After trypsinization, RIN5F cells were seeded at a concentration of 0.2×10^6 cells per well, in 12 well plates. The cells were grown overnight to 80% confluence and insulin secretion experiments were performed as follows (Montrose-Rafizadeh C., et al., Mol. Cell. Endo. 1997, 130, 109.; Wang, X., et al., Endocrinology 2001, 5, 1820).
The cells were washed once with PBS solution followed by 40 min. incubation in fresh Krebs-Ringer Balanced Buffer containing NaCl (115 mmol/L), KCl (4.7 mmol/L), CaCl2 (1.28 mmol/L), MgSO4.7H2O (1.2 mmol/L), KH2PO4 (1.2 mmol/L), NaHCO3 (10 mmol/L) and HEPES (25 mmol/L), containing Glucose (1.1 mM) and B.S.A (0.5%), pH 7.4. The buffer was replaced after 40 min. and the cells were incubated (37° C.) with the test peptidomimetics, at different concentration, for 30 min., both in the presence (16.7 mM) and absence (0 mM) of glucose load. The supernatant was collected and the insulin amount was measured by ultra sensitive Rat insulin ELISA kit (Crystal Chem, IL). The protein was estimated in the supernatant using Bicinchoninic Acid kit, according to the manufacturer's protocol (Sigma Aldrich, MO). The total insulin content obtained in Pico-gram (pg) was divided with the total protein (μg) in order to normalize for differences in cell density between wells.

Where a SMILES comes first, the peptide text is derived from it. [ ]: non-standard residue; d: D form. ξ: configuration not given here. ξαMeBip(2'-Et,4'-OMe) = CCc1cc(OC)ccc1-c1ccc(CC(C)(N)C(=O)O)cc1; ξBip(2'-Et-4'-OMe) = CCc1cc(OC)ccc1-c1ccc(CC(N)C(=O)O)cc1; ξαMePhe(2,6-F2) = CC(N)(Cc1c(F)cccc1F)C(=O)O; ξαMe(hhPhe) = CC(N)(CCCc1ccccc1)C(=O)O; ξαMePhe(2-F) = CC(N)(Cc1ccccc1F)C(=O)O; ξhhPhe = NC(CCCc1ccccc1)C(=O)O; ξαMeD = CC(N)(CC(=O)O)C(=O)O; ξαMeP = CC1(C(=O)O)CCCN1; Ac5c = NC1(C(=O)O)CCCC1; ξαMeS = CC(N)(CO)C(=O)O; Aib = CC(C)(N)C(=O)O

These results are taken from patent US20120264685A1 (priority 2009, published 2012).

In the case of `CCc1cc(OC)ccc1-c1ccc(CC(C)(NC(=O)C(C)(CC(=O)O)NC(=O)[C@H](CO)NC(=O)[C@@H](NC(=O)C(C)(Cc2c(F)cccc2F)NC(=O)[C@@H](NC(=O)CNC(=O)[C@H](CCC(N)=O)NC(=O)C(C)(C)NC(=O)[C@H](Cc2c[nH]cn2)NC(=O)[C@@H](N)C(C)C)[C@@H](C)O)[C@@H](C)O)C(=O)NC(C)(CCCc2ccccc2)C(N)=O)cc1` (single isomer, unassigned) [Seq. ID. No. 199, VH-Aib-QGT-(αMe-2,6-diFPhe)-TS-(αMe-Asp)-(αMe-Bip(OMe))-(αMe-APPA)], the “blood glucose level (in vivo glucose reduction)” value came out at 180 ± 1.2 in assay [1] (0 min), 116 ± 3.2 in assay [1] (30 min), 116 ± 3.1 in assay [1] (60 min) and 118 ± 1.8 in assay [1] (120 min).
With `CCc1cc(OC)ccc1-c1ccc(CC(C)(NC(=O)[C@H](CC(=O)O)NC(=O)[C@H](CO)NC(=O)[C@@H](NC(=O)[C@H](Cc2ccccc2)NC(=O)[C@@H](NC(=O)CNC(=O)[C@H](CCC(=O)O)NC(=O)[C@H](C)NC(=O)[C@H](Cc2c[nH]cn2)NC(=O)[C@@H](NC(=O)[C@@H](N)C(C)C)C(C)C)[C@@H](C)O)[C@@H](C)O)C(=O)NC(CCCc2ccccc2)C(N)=O)cc1` (stereo partly shown) [compound 210] (H-VVHAEGTFTSD[ξαMeBip(2'-Et,4'-OMe)][ξhhPhe]-NH2), the “Insulin secretion” value in assay [2] (0.1 nM test compd.) is 16.3 ± 0.15 pg/µg/h; in assay [2] (1 nM test compd.) it was 22.4 ± 0.21 pg/µg/h; in assay [2] (10 nM test compd.) it was 36.2 ± 0.11 pg/µg/h.
Taken in the same sequence, the figures for `CCc1cc(OC)ccc1-c1ccc(CC(C)(NC(=O)[C@H](CC(=O)O)NC(=O)[C@H](CO)NC(=O)[C@@H](NC(=O)C(C)(Cc2ccccc2F)NC(=O)[C@@H](NC(=O)CNC(=O)[C@H](CCC(N)=O)NC(=O)C2(C)CCCN2C(=O)[C@H](Cc2c[nH]cn2)NC(=O)[C@@H](N)C(C)C)[C@@H](C)O)[C@@H](C)O)C(=O)NC(CCCc2ccccc2)C(N)=O)cc1` (stereo partly shown) [compound 20] (H-VH[ξαMeP]QGT[ξαMePhe(2-F)]TSD[ξαMeBip(2'-Et,4'-OMe)][ξhhPhe]-NH2) were 11.1 ± 0.12 pg/µg/h, 13.1 ± 0.13 pg/µg/h and 19.0 ± 0.16 pg/µg/h.
Taken in the same sequence, the figures for `CCc1cc(OC)ccc1-c1ccc(CC(NC(=O)C(C)(CC(=O)O)NC(=O)C(C)(CO)NC(=O)[C@@H](NC(=O)C(C)(Cc2c(F)cccc2F)NC(=O)[C@@H](NC(=O)CNC(=O)[C@H](CCC(N)=O)NC(=O)C2(C)CCCN2C(=O)[C@H](Cc2c[nH]cn2)NC(=O)[C@@H](N)C(C)C)[C@@H](C)O)[C@@H](C)O)C(=O)NC(C)(CCCc2ccccc2)C(N)=O)cc1` (stereo partly shown) [compound 126] (H-VH[ξαMeP]QGT[ξαMePhe(2,6-F2)]T[ξαMeS][ξαMeD][ξBip(2'-Et-4'-OMe)][ξαMe(hhPhe)]-NH2) were 16.6 ± 0.41 pg/µg/h, 22.9 ± 0.32 pg/µg/h and 36.6 ± 0.19 pg/µg/h.
As for `CCc1cc(OC)ccc1-c1ccc(CC(C)(NC(=O)[C@H](CC(=O)O)NC(=O)[C@H](CO)NC(=O)[C@@H](NC(=O)C(C)(Cc2c(F)cccc2F)NC(=O)[C@@H](NC(=O)CNC(=O)[C@H](CCC(N)=O)NC(=O)[C@H](CO)NC(=O)[C@H](Cc2c[nH]cn2)NC(=O)[C@@H](N)C(C)C)[C@@H](C)O)[C@@H](C)O)C(=O)NC(CCCc2ccccc2)C(N)=O)cc1` (stereo partly shown) [compound 25] (H-VHSQGT[ξαMePhe(2,6-F2)]TSD[ξαMeBip(2'-Et,4'-OMe)][ξhhPhe]-NH2), the “Insulin secretion” value in assay [2] (0.1 nM test compd.) was 12.6 ± 0.20 pg/µg/h; in assay [2] (1 nM test compd.), 15.9 ± 0.31 pg/µg/h; in assay [2] (10 nM test compd.), 28.4 ± 0.11 pg/µg/h.
Turning to `CCc1cc(OC)ccc1-c1ccc(CC(C)(NC(=O)[C@H](CC(=O)O)NC(=O)[C@H](CO)NC(=O)[C@@H](NC(=O)[C@H](Cc2ccccc2)NC(=O)[C@@H](NC(=O)CNC(=O)[C@H](CCC(=O)O)NC(=O)C2(NC(=O)[C@H](Cc3c[nH]cn3)NC(=O)[C@@H](N)C(C)C)CCCC2)[C@@H](C)O)[C@@H](C)O)C(=O)NC(CCCc2ccccc2)C(N)=O)cc1` (stereo partly shown) [compound 15] (H-VH[Ac5c]EGTFTSD[ξαMeBip(2'-Et,4'-OMe)][ξhhPhe]-NH2), the “Insulin secretion” value in assay [2] (0.1 nM test compd.) came out at 15.3 ± 0.19 pg/µg/h; in assay [2] (1 nM test compd.), 21.2 ± 0.11 pg/µg/h; in assay [2] (10 nM test compd.), 35.5 ± 0.19 pg/µg/h.
`CCc1cc(OC)ccc1-c1ccc(CC(C)(NC(=O)C(C)(CC(=O)O)NC(=O)[C@H](CO)NC(=O)[C@@H](NC(=O)[C@H](Cc2ccccc2)NC(=O)[C@@H](NC(=O)CNC(=O)[C@H](CCC(N)=O)NC(=O)[C@H](C)NC(=O)[C@H](Cc2c[nH]cn2)NC(=O)[C@@H](N)C(C)C)[C@@H](C)O)[C@@H](C)O)C(=O)NC(C)(CCCc2ccccc2)C(N)=O)cc1` (stereo partly shown) [compound 182] (H-VHAQGTFTS[ξαMeD][ξαMeBip(2'-Et,4'-OMe)][ξαMe(hhPhe)]-NH2): the “Insulin secretion” value in assay [2] (0.1 nM test compd.) was determined as 13.1 ± 0.11 pg/µg/h; in assay [2] (1 nM test compd.), 14.9 ± 0.17 pg/µg/h; in assay [2] (10 nM test compd.), 28.8 ± 0.44 pg/µg/h.
The corresponding values for `CCc1cc(OC)ccc1-c1ccc(CC(C)(NC(=O)[C@H](CC(=O)O)NC(=O)C(C)(CO)NC(=O)[C@@H](NC(=O)[C@H](Cc2ccccc2)NC(=O)[C@@H](NC(=O)CNC(=O)[C@H](CCC(N)=O)NC(=O)C2(C)CCCN2C(=O)[C@H](Cc2c[nH]cn2)NC(=O)[C@@H](N)C(C)C)[C@@H](C)O)[C@@H](C)O)C(=O)NC(C)(CCCc2ccccc2)C(N)=O)cc1` (stereo partly shown) [compound 160] (H-VH[ξαMeP]QGTFT[ξαMeS]D[ξαMeBip(2'-Et,4'-OMe)][ξαMe(hhPhe)]-NH2) are 16.8 ± 0.20 pg/µg/h, 22.7 ± 0.29 pg/µg/h and 36.6 ± 0.31 pg/µg/h.
The corresponding values for `CCc1cc(OC)ccc1-c1ccc(CC(C)(NC(=O)C(C)(CC(=O)O)NC(=O)[C@H](CO)NC(=O)[C@@H](NC(=O)C(C)(Cc2ccccc2F)NC(=O)[C@@H](NC(=O)CNC(=O)[C@H](CCC(=O)O)NC(=O)C(C)(C)NC(=O)[C@H](Cc2c[nH]cn2)NC(=O)[C@@H](N)C(C)C)[C@@H](C)O)[C@@H](C)O)C(=O)NC(CCCc2ccccc2)C(N)=O)cc1` (stereo partly shown) [compound 71] (H-VH[Aib]EGT[ξαMePhe(2-F)]TS[ξαMeD][ξαMeBip(2'-Et,4'-OMe)][ξhhPhe]-NH2) are 15.6 ± 0.30 pg/µg/h, 21.8 ± 0.11 pg/µg/h and 35.6 ± 0.20 pg/µg/h.
The corresponding values for `CCc1cc(OC)ccc1-c1ccc(CC(NC(=O)C(C)(CC(=O)O)NC(=O)C(C)(CO)NC(=O)[C@@H](NC(=O)C(C)(Cc2ccccc2F)NC(=O)[C@@H](NC(=O)CNC(=O)[C@H](CCC(=O)O)NC(=O)[C@H](CO)NC(=O)[C@H](Cc2c[nH]cn2)NC(=O)[C@@H](N)C(C)C)[C@@H](C)O)[C@@H](C)O)C(=O)NC(C)(CCCc2ccccc2)C(N)=O)cc1` (stereo partly shown) [compound 119] (H-VHSEGT[ξαMePhe(2-F)]T[ξαMeS][ξαMeD][ξBip(2'-Et-4'-OMe)][ξαMe(hhPhe)]-NH2) are 12.4 ± 0.22 pg/µg/h, 15.2 ± 0.32 pg/µg/h and 29.6 ± 0.50 pg/µg/h.
As to `CCc1cc(OC)ccc1-c1ccc(CC(C)(NC(=O)[C@H](CC(=O)O)NC(=O)[C@H](CO)NC(=O)[C@@H](NC(=O)[C@H](Cc2ccccc2)NC(=O)[C@@H](NC(=O)CNC(=O)[C@H](CCC(N)=O)NC(=O)C2(C)CCCN2C(=O)[C@H](Cc2c[nH]cn2)NC(=O)[C@@H](N)C(C)C)[C@@H](C)O)[C@@H](C)O)C(=O)NC(CCCc2ccccc2)C(N)=O)cc1` (stereo partly shown) [compound 8] (H-VH[ξαMeP]QGTFTSD[ξαMeBip(2'-Et,4'-OMe)][ξhhPhe]-NH2), the “Insulin secretion” value in assay [2] (0.1 nM test compd.) came to 12.6 ± 0.25 pg/µg/h; in assay [2] (1 nM test compd.) it was 15.3 ± 0.31 pg/µg/h; in assay [2] (10 nM test compd.), 29.7 ± 0.48 pg/µg/h.
